Reference: patent US20250228916A1, “A METHOD OF TREATING OR PREVENTING SEPSIS” (priority 2016, published 2025)

Assays:
[1] = target: purified receptor a Vb3 (Homo sapiens, UniProt P05106+P06756); test: L. lactis ClfA binding to purified receptor αVβ3; conditions: pretreating the purified receptor with cilengitide; FIG. 6C
[2] = tested on: αVβ3 integrin on sheared endothelial cells; test: E. coli binding to sheared endothelial cells under perfusion; format: cell-based, human; conditions: cilengitide 0.05 μM; E. coli perfused at 10 dyns for 5 minutes; FIG. 14B
[3] = tested on: human endothelial cells; test: Proliferation assay, S. aureus infected human endothelial cells; format: cell-based; conditions: 0.05 μM cilengitide, 24 hrs; FIG. 8H
Experimental: Sheared HAoECs were seeded into a six well plate at 150,000 cells per well in 1.6 ml media containing 10 ng/ml of TNFα. The cells were incubated for 4 hrs at 37° C. in a 5% CO2. […] The media was removed and the well washed with antibiotic free media. To each well 1.6 ml of antibiotic free media was added containing S. aureus Newman or S. aureus ΔClfA for a MOI of 400. The cells were incubated at 37° C. in for 24 hrs. Following incubation the media was removed from the cells and they were washed 4 times with warm PBS. The cells were detached from the 6 well plate by trypsinization counted on a haemocytometer.

[4] = tested on: endothelial cells; test: Apoptosis assay (Annexin V flow cytometry), E. coli infected endothelial cells
Experimental: (§1) Sheared HAoECs in a 6 well plate were exposed to 1 ng of TNFα per 25,000 endothelial cells and were incubated for 4 hrs at 37° C. The TNFα containing media was removed and 1 ml of 4 mg/ml Fg in media at 37° C. for 1 hr. Media was removed and replaced with 1 ml of antibiotic free media containing S. aureus Newman WT or Newman ΔClfA to a MOI of 400 in a final volume per well of 2 ml. The cells were incubated for 24 hrs at 37° C. Following incubation the media was removed and the wells washed 3 times with warm PBS. Cells were detached by trypsinization and pelleted. The cell pellet was washed in ice cold (4° C.) PBS before being stained with a TACS™ Annexin V Apoptosis Kit. The cells were analysed on a flow cytometer (BD FACSCanto™ II Flow Cytometer). The experiment was repeated to test αVβ3 blocking by cilengitide at 0.05 µM for 1 hr between the TNFα exposure and the addition of 4 mg/ml fibrinogen for 1 hr. This experiment was repeated using E. coli and E. coli AompA instead of S. aureus Newman WT or Newman ΔClfA.

[5] = tested on: vascular endothelial αVβ3 integrin receptor; test: Adhesion of gram positive and gram negative bacteria to vascular endothelial cells; format: cell-based, human; conditions: blocking the αVβ3 receptor
Experimental: (§2) Sheared HAoECs were seeded into wells of a 96 well tissue culture plate at a density of 2.5×10^4 cells per well in a volume of 100 μl. Experiments were carried out either in the presence or absence of TNFα at 10 ng/ml. The HAoECs were incubated at 37° C. 5% CO2 for 4 hours to facilitate attachment and cell-cell contact on the plate. Following the 4 hr incubation the media was removed and 100 μl of human platelet poor plasma (PPP), 4 mg/ml fibrinogen or 1 mg/ml IgG was added to each well and incubated for 1 hr at 37° C. 5% CO2. The wells were washed with PBS and the wells were blocked with 100 μl of 1% […] for 1 hr at 37° C. Finally the wells were washed with 100 μl of TBS and 100 μl of SYBR green II stained bacteria was added per well at a MOI of 400. The cells were incubated for a further 1 hr at 37° C. 5% CO2 and then read on a fluorescent plate reader (1420 Victor V3, Perkin Elmer, Dublin, Ireland) at 485/535 nm. The bacteria were then removed gently by pipette and the plate washed with 100 μl TBS/well. The plate was then read again at 485/535 nm. Adhered bacteria were calculated as a percent remaining from the initial reading multiplied by the number of bacteria added.

[6] = tested on: human endothelial cells; test: Apoptosis assay (Annexin V), S. aureus infected human endothelial cells; format: cell-based; conditions: cilengitide at 0.05 µM for 1 hr; FIG. 9B
Experimental: as §1

[7] = tested on: human endothelial cells; test: MTT cytotoxicity assay; format: cell-based; conditions: 0.05 μM cilengitide, FIG. 12
Experimental: Cell metabolic activity was measured using a MTT ((3-(4,5-dimethylthiazol-2-yl)-2,5-diphenyltetrazolium bromide) assay kit. Sheared HAoECs were seeded into a clear 96 well microtitre plate at a density of 2.5×10^4 cells/well in 100 μl in media containing 10 ng/ml TNFα. The cells were incubated for 4 hrs at 37° C. Media was removed from the wells after 4 hrs and replaced with 100 μl of fresh cell media, cell media containing a vehicle or cell media containing 0.05 μM cilengitide. The plate was incubated for a further one hour before the media was changed for 100 μl of fresh cell media with 10 μl of 12 mM MTT stock and the plate 10 incubated at 37° C. for 4 hrs. All but 25 μl of liquid was removed from each well and 10 μl of DMSO was added per well. The plate was incubated for 10 minutes at 37° C. before being read on a plate reader for absorbance at 570 nm.

[8] = tested on: αVβ3 integrin on endothelial cells; test: E. coli binding to endothelial cells, static assay; format: cell-based, human; conditions: cilengitide 0.05 μM; FIG. 14A
Experimental: as §2

[9] = tested on: S. aureus adhesion to murine endothelial cells; test: In vivo venous mesenteric perfusion model of bacterial adhesion; conditions: cilengitide administered intravenously; FIG. 7C, 7E
[10] = tested on: endothelial cells; test: Transwell permeability assay, E. coli infected endothelial cells; format: cell-based, human; conditions: preincubating the endothelial cells with cilengitide; FIG. 16
Experimental: (§3) Endothelial barrier permeability was assessed using a transwell apparatus with the slight modifications. Sheared HAoECs were trypsinized and seeded into hanging inserts, were placed in a 6 well plate. To the lower (abluminal) chamber of the plate 4 ml of cell media was added and 2 ml of media containing 200,000 cells/ml was added to the top (luminal) chamber. The wells plates were incubated at 37° C. in a 5% CO2 and humidified atmosphere overnight to form a confluent monolayer. Media in the abluminal chamber was changed to antibiotic free media while simultaneously the media in the luminal chamber was removed and washed with antibiotic free media. Cells were infected with S. aureus Newman WT and S. aureus ΔClfA in 2 ml of antibiotic free media to infect the cells at a MOI of 400 for 3 hrs at 37° C. FITC dextran (40 kDa) was added to the top chamber for a final concentration of 250 μg/ml in 2 ml. Media samples from the abluminal chamber were taken 24 hrs after infection measured on a plate reader at fluorescence Ex/Em 485/535 nm. The experiment was repeated to test αVβ3 blocking by cilengitide at 0.05 μM for 1 hr between the TNFα exposure and the addition of 4 mg/ml fibrinogen in place of plasma for 1 hr. This experiment was repeated using E. coli and E. coli AompA instead of S. aureus Newman WT or Newman ΔClfA.

[11] = tested on: endothelial cells; test: VE-cadherin immunostaining of tight junction formation after E. coli infection; format: cell-based, human; conditions: pre-treating the endothelial cells with cilengitide; FIG. 17E
[12] = tested on: human endothelial cells; test: Transwell permeability assay, S. aureus infected human endothelial cells; format: cell-based; conditions: cilengitide at 0.05 μM for 1 hr; FIG. 10
Experimental: as §3

[13] = tested on: αVβ3 on human endothelial cells; test: Binding assay: L. lactis expressing ClfA binding to sheared human endothelial cells; format: cell-based; conditions: pretreatment of the human endothelial cells with cilengitide; FIG. 6B
Experimental: as §2

[14] = target: vascular endothelial αVβ3 integrin on sheared human aortic endothelial cells (human)

Chain of purified receptor a Vb3 (P06756 31-889 limits assumed): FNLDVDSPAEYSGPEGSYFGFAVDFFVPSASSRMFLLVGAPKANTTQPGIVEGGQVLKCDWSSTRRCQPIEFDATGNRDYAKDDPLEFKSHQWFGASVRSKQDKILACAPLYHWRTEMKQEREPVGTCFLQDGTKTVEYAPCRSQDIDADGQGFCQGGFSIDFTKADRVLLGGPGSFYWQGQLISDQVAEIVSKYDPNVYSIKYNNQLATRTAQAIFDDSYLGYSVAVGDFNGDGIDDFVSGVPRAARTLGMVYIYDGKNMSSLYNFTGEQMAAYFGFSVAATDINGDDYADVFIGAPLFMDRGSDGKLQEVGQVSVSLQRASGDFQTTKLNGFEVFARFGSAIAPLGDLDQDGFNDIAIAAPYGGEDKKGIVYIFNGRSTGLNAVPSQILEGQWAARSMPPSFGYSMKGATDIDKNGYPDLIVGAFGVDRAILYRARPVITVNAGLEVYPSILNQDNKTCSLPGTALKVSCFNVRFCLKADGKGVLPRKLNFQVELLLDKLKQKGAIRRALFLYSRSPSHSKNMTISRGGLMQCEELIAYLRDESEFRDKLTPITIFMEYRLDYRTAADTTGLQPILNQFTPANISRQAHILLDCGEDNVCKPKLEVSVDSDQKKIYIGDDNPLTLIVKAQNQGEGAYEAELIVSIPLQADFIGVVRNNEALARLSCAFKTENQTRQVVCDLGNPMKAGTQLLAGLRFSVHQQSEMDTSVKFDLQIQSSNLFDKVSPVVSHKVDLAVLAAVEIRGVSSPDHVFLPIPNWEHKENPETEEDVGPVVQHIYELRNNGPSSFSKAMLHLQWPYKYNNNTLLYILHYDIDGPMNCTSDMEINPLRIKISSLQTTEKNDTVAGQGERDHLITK
Chain of purified receptor a Vb3 (P06756 891-1048 partner limits assumed): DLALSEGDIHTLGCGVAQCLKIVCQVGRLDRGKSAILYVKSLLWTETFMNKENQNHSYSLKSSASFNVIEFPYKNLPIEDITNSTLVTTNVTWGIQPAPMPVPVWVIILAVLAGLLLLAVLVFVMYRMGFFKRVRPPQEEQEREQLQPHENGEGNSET
Chain of purified receptor a Vb3 (P05106 27-788): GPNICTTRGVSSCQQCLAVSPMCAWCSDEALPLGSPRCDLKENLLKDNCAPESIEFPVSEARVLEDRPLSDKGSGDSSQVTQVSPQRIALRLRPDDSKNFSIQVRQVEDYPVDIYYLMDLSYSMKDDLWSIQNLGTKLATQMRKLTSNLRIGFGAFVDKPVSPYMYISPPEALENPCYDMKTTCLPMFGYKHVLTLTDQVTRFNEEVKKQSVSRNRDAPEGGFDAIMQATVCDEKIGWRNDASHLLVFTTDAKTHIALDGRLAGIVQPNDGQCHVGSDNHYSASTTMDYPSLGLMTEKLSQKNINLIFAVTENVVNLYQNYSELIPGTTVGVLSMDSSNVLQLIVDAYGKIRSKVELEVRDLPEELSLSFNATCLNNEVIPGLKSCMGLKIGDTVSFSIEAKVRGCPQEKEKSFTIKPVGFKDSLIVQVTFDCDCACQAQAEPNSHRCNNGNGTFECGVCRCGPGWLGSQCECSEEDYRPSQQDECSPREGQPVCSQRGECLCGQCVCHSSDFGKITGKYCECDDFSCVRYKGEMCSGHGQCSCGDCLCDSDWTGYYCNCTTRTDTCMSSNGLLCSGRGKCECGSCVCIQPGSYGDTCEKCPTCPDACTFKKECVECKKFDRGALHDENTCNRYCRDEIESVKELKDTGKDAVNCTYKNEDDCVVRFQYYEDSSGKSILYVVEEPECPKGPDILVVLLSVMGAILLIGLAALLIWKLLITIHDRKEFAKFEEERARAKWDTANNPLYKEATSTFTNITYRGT

Molecule | L. lactis ClfA binding to purified receptor αVβ3 [1] | E. coli binding to sheared endothelial cells, perfused [2] | human endothelial cell proliferation after S. aureus infection [3] | viability of endothelial cells ([4]; cilengitide alone, no infection) | E. coli induced apoptosis of endothelial cells ([4]; preincubation of endothelial cells with cilengitide, Annexin V, FIG. 17F) | adhesion of both gram positive and gram negative bacteria to vascular endothelial cells [5] | S. aureus induced apoptosis of human endothelial cells [6] | toxicity in human endothelial cells [7] | E. coli binding to endothelial cells, static assay [8] | S. aureus binding to murine endothelial cells [9] | E. coli induced permeability of endothelial cells [10] | VE-cadherin tight junction formation following E. coli infection [11] | permeability of the human endothelial barrier following S. aureus infection [12] | binding of L. lactis expressing ClfA to human endothelial cells [13] | endothelial cell permeability (% increase in permeability) [14]
CC(C)[C@H]1C(=O)N[C@@H](CCCN=C(N)N)C(=O)NCC(=O)N[C@@H](CC(=O)O)C(=O)N[C@H](Cc2ccccc2)C(=O)N1C [cilengitide, cyclo(-RGDf(NMe)V-)] | significantly inhibited | significantly inhibited | significantly recovered | failed to affect | significant reduction | dose-dependent reduction in adhesion | significantly reduced | does not cause toxicity | significantly inhibited | failed to significantly bind | significantly reduces permeability | recovery of tight junction formation | significantly reduced | significantly reduced | 
Escherichia coli outer membrane protein A |  |  |  |  |  |  |  |  |  |  |  |  |  |  | 30
